# Assay results: the Kinase Knowledgebase extract (Sharma et al. 2016)
# Target: EGFR (UniProt P00533)
# Sequence (P00533 whole entry, looked up): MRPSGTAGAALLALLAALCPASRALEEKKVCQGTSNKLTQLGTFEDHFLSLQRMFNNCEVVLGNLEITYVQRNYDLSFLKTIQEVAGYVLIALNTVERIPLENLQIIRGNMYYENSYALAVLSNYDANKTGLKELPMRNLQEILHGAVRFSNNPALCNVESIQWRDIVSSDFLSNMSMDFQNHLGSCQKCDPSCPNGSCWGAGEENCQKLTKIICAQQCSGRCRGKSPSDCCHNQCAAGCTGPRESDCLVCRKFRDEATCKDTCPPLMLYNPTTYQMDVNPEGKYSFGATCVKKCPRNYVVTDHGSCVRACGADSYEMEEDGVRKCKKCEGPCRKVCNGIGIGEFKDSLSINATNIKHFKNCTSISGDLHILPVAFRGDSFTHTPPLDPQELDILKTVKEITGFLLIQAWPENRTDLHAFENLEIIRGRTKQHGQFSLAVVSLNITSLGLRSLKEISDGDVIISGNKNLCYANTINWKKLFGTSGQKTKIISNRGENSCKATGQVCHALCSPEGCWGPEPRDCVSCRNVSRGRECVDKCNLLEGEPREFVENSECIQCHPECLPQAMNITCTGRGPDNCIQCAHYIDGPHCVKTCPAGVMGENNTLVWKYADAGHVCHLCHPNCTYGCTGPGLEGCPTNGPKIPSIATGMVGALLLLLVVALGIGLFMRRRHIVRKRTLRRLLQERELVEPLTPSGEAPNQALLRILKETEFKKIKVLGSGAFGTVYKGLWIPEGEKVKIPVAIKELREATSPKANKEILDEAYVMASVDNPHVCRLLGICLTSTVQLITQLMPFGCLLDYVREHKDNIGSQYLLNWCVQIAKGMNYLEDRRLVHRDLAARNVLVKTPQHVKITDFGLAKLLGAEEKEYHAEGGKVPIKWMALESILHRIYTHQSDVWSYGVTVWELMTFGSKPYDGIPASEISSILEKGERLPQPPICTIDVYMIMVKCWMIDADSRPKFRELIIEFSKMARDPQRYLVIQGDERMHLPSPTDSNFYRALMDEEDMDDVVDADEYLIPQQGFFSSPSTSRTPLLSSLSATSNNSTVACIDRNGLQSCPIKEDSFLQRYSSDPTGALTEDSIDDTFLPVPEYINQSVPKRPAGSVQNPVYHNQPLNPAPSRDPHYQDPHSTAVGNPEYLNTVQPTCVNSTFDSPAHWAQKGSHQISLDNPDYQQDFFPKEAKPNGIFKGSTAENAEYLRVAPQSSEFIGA
row,IC50 [µM],SMILES
1,0.01,COc1cc2ncnc(NCc3ccccc3)c2cc1OC
2,1,COc1cc2ncnc(NC3CCc4ccccc43)c2cc1OC (stereo not given)
3,0.12,COc1ccc2c(Nc3ccccc3)ncnc2c1
4,0.0016,COc1cc2ncnc(N[C@H](C)c3ccccc3)c2cc1OC
5,0.058,COc1ccc2c(NCc3ccccc3)ncnc2c1
6,0.234,CC[C@@H](Nc1ncnc2cc(OC)c(OC)cc12)c1ccccc1
7,0.148,COc1cc2ncnc(NCc3cccc4ccccc34)c2cc1OC
8,0.029,COc1ccc2c(N[C@H](C)c3ccccc3)ncnc2c1
9,0.139,COc1cc2ncnc(N[C@H](C)c3cccc4ccccc34)c2cc1OC
10,4,COc1ccc2c(N[C@@H](C)c3ccccc3)ncnc2c1
11,0.086,C[C@@H](Nc1ncnc2ccccc12)c1ccccc1
12,3.76,COc1cc2ncnc(N[C@@H](C)c3ccccc3)c2cc1OC
13,0.32,c1ccc(CNc2ncnc3ccccc23)cc1
14,> 10,C[C@H](Nc1ncnc2ccccc12)c1ccccc1

row,SMILES,IC50 [µM]
1,c1ccc(CCNc2ncnc3ccccc23)cc1,4.1
